Assay results: patent US20250320213A1, “Nitrogen-Containing Heterocyclic Compounds” (Pfizer Inc., priority 2024, published 2025)
Where two headings read alike, the source gives them in different places.

Tests used:
[1] = system: CCL17 secretion in peripheral human whole blood; assay: Human Whole Blood (HWB) CCL17 TR-FRET Assay (IL-13 stimulated CCL17 secretion); assay type: cell-based
In short: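 Measured here: CCL17 in serum by TR-FRET (665/615 nm) after overnight (16 h) room-temperature detection. The blood, heparinized and compound-treated for 2 h, received IL-13 at 10 ng/mL final and was cultured 48 h at 37 °C.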

[2] = target: T1, STAT6 (Homo sapiens, UniProt P42226); assay: STAT6 Reporter Luciferase Assay (IL-13 stimulated HaCaT keratinocyte NanoLuc reporter cells); assay type: cell-based; conditions: read-out: Reporter EC50
T1 construct: stably transfected HaCaT keratinocyte cell line, which expresses NanoLuc luciferase reporter gene under the transcriptional control of the STAT6 responsive promoter; endogenous in cells; host or cells: HaCaT keratinocyte reporter cell line (stably transfected with a NanoLuc reporter)
T1 sequence (P42226 1-847): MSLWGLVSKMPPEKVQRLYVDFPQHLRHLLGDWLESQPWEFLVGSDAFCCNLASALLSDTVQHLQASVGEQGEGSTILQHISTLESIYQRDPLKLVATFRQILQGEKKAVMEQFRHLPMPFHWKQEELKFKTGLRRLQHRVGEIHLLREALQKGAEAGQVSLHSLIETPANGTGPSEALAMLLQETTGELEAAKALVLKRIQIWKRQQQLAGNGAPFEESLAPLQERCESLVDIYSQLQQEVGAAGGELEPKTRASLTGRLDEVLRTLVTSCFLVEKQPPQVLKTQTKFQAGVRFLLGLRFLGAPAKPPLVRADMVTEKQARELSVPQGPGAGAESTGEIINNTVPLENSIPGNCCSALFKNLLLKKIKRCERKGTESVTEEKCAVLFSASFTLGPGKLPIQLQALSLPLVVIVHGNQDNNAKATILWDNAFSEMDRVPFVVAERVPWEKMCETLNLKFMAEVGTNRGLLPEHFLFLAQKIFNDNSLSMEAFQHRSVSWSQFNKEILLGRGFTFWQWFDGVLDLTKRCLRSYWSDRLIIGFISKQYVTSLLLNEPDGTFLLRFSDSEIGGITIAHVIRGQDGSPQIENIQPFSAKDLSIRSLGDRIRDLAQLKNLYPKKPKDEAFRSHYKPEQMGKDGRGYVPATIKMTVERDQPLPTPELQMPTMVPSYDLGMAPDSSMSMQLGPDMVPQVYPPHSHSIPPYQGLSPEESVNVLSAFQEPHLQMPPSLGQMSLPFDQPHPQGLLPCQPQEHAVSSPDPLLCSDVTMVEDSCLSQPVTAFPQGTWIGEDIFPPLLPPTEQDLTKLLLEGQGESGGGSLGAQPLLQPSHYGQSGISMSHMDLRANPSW
In short: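 IL-13 (0.12 nM, 4 h) stimulated STAT6 reporter activity in HaCaT cells after a 2 h compound pre-incubation; NanoLuc signal was measured.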

[3] = Homo sapiens, 48 h, human whole blood, IL-13 stimulated
[4] = IL-13 stimulated HaCaT STAT6 NanoLuc reporter cells
[5] = Homo sapiens, 48 h, inhibition of CCL17 secretion in human whole blood, 10 ng/mL IL13, 48 hours
[6] = STAT6 NanoLuc luciferase reporter, IL-13 stimulated HaCaT keratinocyte cells
[7] = Homo sapiens, 48 h, human whole blood, 10 ng/mL IL13, 48 hours
[8] = inhibition of CCL17 secretion in human whole blood, 10 ng/mL IL13, 48 hours
[9] = human whole blood, IL-13 stimulated, 48 hours

Row | SMILES | EC50 [2, 4] [nM] | EC50 [2, 6] [nM] | further results
1 | CC(C)Cn1nc(C(=O)NCc2ccc(NC(=O)N(C)C)cc2)c2c1CCN(c1ccc(C(=O)N(C)C)cn1)C2 [Example 279, 5-(5-(dimethylcarbamoyl)pyridin-2-yl)-N-(4-(3,3-dimethylureido)benzyl)-1-isobutyl-4,5,6,7-tetrahydro-1H-pyrazolo[4,3-c]pyridine-3-carboxamide] | 9 | – | IC50 [1, 3]: 94 nM
2 | CCC1CN(c2ccc(C(=O)N(C)C)cn2)Cc2c(C(=O)NCc3ccc(NC(=O)N(C)C)cc3)nc(C)n21 (racemic) [Example 130, rac-(R)-7-(5-(dimethylcarbamoyl)pyridin-2-yl)-N-(4-(3,3-dimethylureido)benzyl)-5-ethyl-3-methyl-5,6,7,8-tetrahydroimidazo[1,5-a]pyrazine-1-carboxamide] | – | 23 | IC50 [1, 5]: 77 nM
3 | CC(C)n1nc(C(=O)NCc2ccc(N)cc2)c2c1[C@@H](C)CN(c1ncc(C(=O)N(C)C)cn1)C2 [Example 491, (S)-N-(4-aminobenzyl)-5-(5-(dimethylcarbamoyl)pyrimidin-2-yl)-1-isopropyl-7-methyl-4,5,6,7-tetrahydro-1H-pyrazolo[4,3-c]pyridine-3-carboxamide] | 7 | – | IC50 [1, 3]: 34 nM
4 | C[C@@H]1CN(c2ccc(C(=O)N(C)C)cn2)Cc2c(C(=O)NCc3ccc(NC(=O)N(C)C)cc3)nn(C3CCOCC3)c21 (single isomer, unassigned) [Example 556] | 58 | – | IC50 [1, 7]: 196 nM
5 | CC(C)n1nc(C(=O)NCc2ccc(-c3ncc[nH]3)cc2)c2c1C(C(F)(F)F)CN(c1ccc(C(=O)N(C)C)cn1)C2 (single isomer, unassigned) [Example 123, rel-(R or S)-N-(4-(1H-imidazol-2-yl)benzyl)-5-(5-(dimethylcarbamoyl)pyridin-2-yl)-1-isopropyl-7-(trifluoromethyl)-4,5,6,7-tetrahydro-1H-pyrazolo[4,3-c]pyridine-3-carboxamide] | – | 41 | IC50 [1, 8]: 1010 nM
6 | CC(C)n1nc(C(=O)NCc2ccc(NC(=O)N(C)C)cc2)c2c1CCN(c1ncc(-c3nccn3C)cn1)C2 [Example 34, N-(4-(3,3-Dimethylureido)benzyl)-1-isopropyl-5-(5-(1-methyl-1H-imidazol-2-yl)pyrimidin-2-yl)-4,5,6,7-tetrahydro-1H-pyrazolo[4,3-c]pyridine-3-carboxamide] | – | 8 | IC50 [1, 5]: 71 nM
7 | CC(C)n1nc(C(=O)NCc2ccc(NC(=O)N(C)C)cc2)c2c1C(C(F)(F)F)CN(c1ncc(C(=O)N(C)C)cn1)C2 (single isomer, unassigned) [Example 461, rel-(R or S)-5-(5-(dimethylcarbamoyl)pyrimidin-2-yl)-N-(4-(3,3-dimethylureido)benzyl)-1-isopropyl-7-(trifluoromethyl)-4,5,6,7-tetrahydro-1H-pyrazolo[4,3-c]pyridine-3-carboxamide] | 0.2 | – | IC50 [1, 9]: < 1 nM
8 | CCC1CN(c2ccc(C(=O)N(C)C)cn2)Cc2c(C(=O)NCc3ccc(NC(=O)N(C)C)cc3)n[nH]c21 (single isomer, unassigned) [Example 83, rel-(R or S)-5-(5-(dimethylcarbamoyl)pyridin-2-yl)-N-(4-(3,3-dimethylureido)benzyl)-7-ethyl-4,5,6,7-tetrahydro-1H-pyrazolo[4,3-c]pyridine-3-carboxamide] | – | 86 | IC50 [1, 8]: 278 nM
9 | CC(C)n1nc(C(=O)NCc2ccc(-c3ncc[nH]3)cc2)c2c1[C@H](C)CN(c1ncc(C(=O)N(C)C)cn1)C2 (single isomer, unassigned) [Example 549] | 99 | – | IC50 [1, 7]: 1100 nM
10 | CCn1nc(C(=O)NCc2ccc(NC(=O)N(C)C)cc2)c2c1C(C(F)(F)F)CN(c1ccc(C(=O)N(C)C)cn1)C2 (single isomer, unassigned) [Example 303, rel-(R or S)-5-(5-(dimethylcarbamoyl)pyridin-2-yl)-N-(4-(3,3-dimethylureido)benzyl)-1-ethyl-7-(trifluoromethyl)-4,5,6,7-tetrahydro-1H-pyrazolo[4,3-c]pyridine-3-carboxamide] | 22 | – | IC50 [1, 9]: 334 nM
11 | COCC(C)n1nc(C(=O)NCc2ccc(NC(=O)N(C)C)cc2)c2c1CCN(c1ccc(C(=O)N(C)C)cn1)C2 (racemic) [Example 92, rac-(R)-5-(5-(dimethylcarbamoyl)pyridin-2-yl)-N-(4-(3,3-dimethylureido)benzyl)-1-(1-methoxypropan-2-yl)-4,5,6,7-tetrahydro-1H-pyrazolo[4,3-c]pyridine-3-carboxamide] | – | 20 | IC50 [1, 5]: 62 nM
12 | CC(C)n1nc(C(=O)NCc2ccc(NC(=O)N(C)C)cc2)c2c1CCN(c1ccc(N3CC[C@@H](F)C3=O)cn1)C2 [Example 98, (R)-N-(4-(3,3-dimethylureido)benzyl)-5-(5-(3-fluoro-2-oxopyrrolidin-1-yl)pyridin-2-yl)-1-isopropyl-4,5,6,7-tetrahydro-1H-pyrazolo[4,3-c]pyridine-3-carboxamide] | – | 48 | IC50 [1, 5]: 573 nM
13 | CC(C)n1nc(C(=O)NCc2ccc(NC(=O)N3CCC(C)(O)CC3)cc2)c2c1[C@@H](C)CN(c1ccc(C(=O)N(C)C)cn1)C2 [Example 592, (S)-5-(5-(dimethylcarbamoyl)pyridin-2-yl)-N-(4-(4-hydroxy-4-methylpiperidine-1-carboxamido)benzyl)-1-isopropyl-7-methyl-4,5,6,7-tetrahydro-1H-pyrazolo[4,3-c]pyridine-3-carboxamide] | 1 | – | IC50 [1, 7]: 9 nM
14 | Cc1ccc(-c2ccc(CNC(=O)c3nn(C(C)C)c4c3CN(c3ccc(C(=O)N(C)C)cc3)C[C@@H]4C)cc2)nn1 [Example 727, (S)-5-(4-(dimethylcarbamoyl)phenyl)-1-isopropyl-7-methyl-N-(4-(6-methylpyridazin-3-yl)benzyl)-4,5,6,7-tetrahydro-1H-pyrazolo[4,3-c]pyridine-3-carboxamide] | 11 | – | IC50 ([1]; Homo sapiens, 48 h, human whole blood, IL-13 10 ng/mL): 383 nM
15 | Cc1nn(C)c(=O)n1-c1ccc(N2Cc3c(C(=O)NCc4ccc(NC(=O)N(C)C)cc4)nn(C(C)C)c3[C@@H](C)C2)nc1 [Example 466, (S)-5-(5-(1,3-dimethyl-5-oxo-1,5-dihydro-4H-1,2,4-triazol-4-yl)pyridin-2-yl)-N-(4-(3,3-dimethylureido)benzyl)-1-isopropyl-7-methyl-4,5,6,7-tetrahydro-1H-pyrazolo[4,3-c]pyridine-3-carboxamide] | 2 | – | IC50 [1, 3]: 18 nM
16 | CCC1Cc2c(c(C(=O)NCc3ccc(NC(=O)N(C)C)cc3)nn2C(C)C)CN1c1ccc(C(=O)N(C)C)cn1 (single isomer, unassigned) [Example 267, rel-(R or S)-5-(5-(dimethylcarbamoyl)pyridin-2-yl)-N-(4-(3,3-dimethylureido)benzyl)-6-ethyl-1-isopropyl-4,5,6,7-tetrahydro-1H-pyrazolo[4,3-c]pyridine-3-carboxamide] | 50 | – | IC50 [1, 9]: 984 nM
17 | CC(C)n1nc(C(=O)NCc2ccc(NC(=O)N(C)C)cc2)c2c1CCN(c1ccc(-n3ccnn3)cn1)C2 [Example 64, 5-(5-(1H-1,2,3-triazol-1-yl)pyridin-2-yl)-N-(4-(3,3-dimethylureido)benzyl)-1-isopropyl-4,5,6,7-tetrahydro-1H-pyrazolo[4,3-c]pyridine-3-carboxamide] | – | 4 | IC50 [1, 5]: 73 nM
18 | CCn1nc(C(=O)NCc2ccc(NC(=O)N(C)C)cc2)c2c1C(C(F)(F)F)CN(c1ccc(C(=O)N(C)C)cn1)C2 (racemic) [Example 282, rac-(R)-5-(5-(dimethylcarbamoyl)pyridin-2-yl)-N-(4-(3,3-dimethylureido)benzyl)-1-ethyl-7-(trifluoromethyl)-4,5,6,7-tetrahydro-1H-pyrazolo[4,3-c]pyridine-3-carboxamide] | 1 | – | IC50 [1, 3]: 9 nM
